Data taken from article PMC9206137, “Synergistic anti-SARS-CoV-2 activity of repurposed anti-parasitic drug combinations” (BMC Pharmacology & Toxicology, 2022).
Where “and” joins values, the source holds several entries; their conditions need not be identical. Equal entries are not always repeated. Where two headings read alike, the source gives them in different places.

Legend:
[1] = system: Vero E6 cells; experiment: Cell viability assay (MTT) in Vero E6 cells; conditions: for %cell viability / cell viability: replicates; for cell viability: Vero E6 cells
Protocol: (§1) Subsequently, the cell viability was assessed using MTT dyes (Invitrogen) in duplicate (Supplementary file 1). The procedure was described elsewhere. The viability of drug-treated cells was expressed as percent cell viability relative to 0.5% DMSO-treated cells.

[2] = system: dengue virus; conditions: read-out: IC50 against dengue virus, cited from earlier work
[3] = system: SARS-CoV-2; conditions: cited from earlier work
[4] = calculated based on lung: plasma ratio in cattle; cited from earlier work
[5] = system: SARS-CoV-2; experiment: Antiviral activity against SARS-CoV-2 in Vero E6 cells, plaque assay; type: cell-based; conditions: Vero E6; for %inhibition (plaque assay): replicates
[6] = system: SARS-CoV-2; experiment: microbe, parasite or virus in culture; type: cell-based; conditions: for %inhibition (plaque assay) / % inhibition: replicates; for % inhibition: Calu-3 cells
[7] = system: plasma nonstructural protein 1; conditions: dengue patients; cited from earlier work
[8] = humans; oral 200 μg/kg; mean ± SD; cited from earlier work
[9] = system: SARS-CoV-2; experiment: Antiviral activity against SARS-CoV-2 in Vero E6 cells, one-step qRT-PCR (single drugs, two-drug combinations, synergy analysis); conditions: for %inhibition (qRT-PCR) / % inhibition: replicates; for % inhibition: Vero E6 cells
[10] = system: Calu-3 cells; experiment: Cell viability assay (MTT) in Calu-3 cells; conditions: for %cell viability / cell viability: replicates; for cell viability: Calu-3 cells
Protocol: as §1

ivermectin
CC50 ([1]; Vero E6, MTT, 48 hours): 10.6 µM | %cell viability ([1]; Vero E6, ivermectin 0.15625 uM): 102.24% | %cell viability ([1]; Vero E6, ivermectin 0.3125 uM): 100.47% and 100.17% | %cell viability ([1]; Vero E6, ivermectin 0.625 uM): 102.19% | %cell viability ([1]; Vero E6, ivermectin 1.25 uM): 100.11% and 101.75% | %cell viability ([1]; Vero E6, ivermectin 2.5 uM): 99.32% | %cell viability ([1]; Vero E6, ivermectin 5 uM): 83.87% and 88.89% | %cell viability ([1]; Vero E6, ivermectin 10 uM): 55.14% and 53.62% and 46.86% | %cell viability ([1]; Vero E6, ivermectin 20 uM): 21.86% and 15.62% and 14.14% | %cell viability ([1]; Vero E6, ivermectin 40 uM): 12.31% and 10.14% and 11.10% | cell viability ([1]; Ivermectin 0.3 uM alone): 100.47 and 100.17 | cell viability ([1]; Ivermectin 0.6 uM alone): 102.19 | cell viability ([1]; Ivermectin 1.2 uM alone): 100.11 and 101.75 | cell viability ([1]; Ivermectin 2.4 uM alone): 99.32 | IC50 ([2]; Huh-7 cells): ~4.64 µM | IC50 ([2]; immortalized hepatocyte-like cell line): ~5.33 µM | reduction in SARS-CoV-2 replication in vitro [3]: up to 5000 fold | predicted maximum lung concentration [4]: 0.0873 µM | IC50 ([5]; MOI 0.01, 48 hours, single drug): 1.23 µM | %inhibition (plaque assay) ([5]; ivermectin 0.15625 uM): 7.34% and 7.50% and 7.15% | %inhibition (plaque assay) ([5]; ivermectin 0.3125 uM): 29.78% and 21.00% and 25.31% | %inhibition (plaque assay) ([5]; ivermectin 0.625 uM): 30.26% (2×) and 32.64% | %inhibition (plaque assay) ([5]; ivermectin 1.25 uM): 52.64% and 56.27% and 48.59% | %inhibition (plaque assay) ([5]; ivermectin 2.5 uM): 63.02% and 62.70% and 66.77% | %inhibition (plaque assay) ([5]; ivermectin 5 uM): 78.39% and 83.51% and 83.02% | IC50 ([6]; Calu-3, 500 TCID50, plaque assay, single drug): 0.2 µM | %inhibition (plaque assay) ([6]; Calu-3, ivermectin 0.048828 uM): 7.34% and 7.50% and 6.92% | %inhibition (plaque assay) ([6]; Calu-3, ivermectin 0.195313 uM): 43.75% and 44.69% and 42.02% | %inhibition (plaque assay) ([6]; Calu-3, ivermectin 0.390625 uM): 55.86% and 56.30% and 55.45% | %inhibition (plaque assay) ([6]; Calu-3, ivermectin 0.78125 uM): 63.14% and 86.03% and 74.50% | %inhibition (plaque assay) ([6]; Calu-3, ivermectin 1.5625 uM): 90.72% and 80.25% and 82.92% | %inhibition (plaque assay) ([6]; Calu-3, ivermectin 3.125 uM): 98.34% and 97.94% and 90.53% | % inhibition ([6]; Ivermectin 0.05 uM alone): 26.67% (2×) and 33.33% | % inhibition ([6]; Ivermectin 0.10 uM alone): 33.33% and 26.67% and 40.00% | % inhibition ([6]; Ivermectin 0.20 uM alone): 40.00% and 66.67% and 53.33% | % inhibition ([6]; Ivermectin 0.40 uM alone): 53.33% and 73.33% and 66.67% | level of plasma nonstructural protein 1 [7]: reduce | maximum plasma concentration [8]: 0.049 ± 0.02 µM | %inhibition (qRT-PCR) ([9]; Vero E6, ivermectin 0.15625 uM): 20.77% and 18.77% and 17.59% | %inhibition (qRT-PCR) ([9]; Vero E6, ivermectin 0.3125 uM): 22.09% and 7.36% and 10.53% | %inhibition (qRT-PCR) ([9]; Vero E6, ivermectin 0.625 uM): 17.18% and 18.46% and 16.20% | %inhibition (qRT-PCR) ([9]; Vero E6, ivermectin 1.25 uM): 48.83% and 48.22% and 45.15% | %inhibition (qRT-PCR) ([9]; Vero E6, ivermectin 2.5 uM): 68.53% and 77.48% and 81.10% | %inhibition (qRT-PCR) ([9]; Vero E6, ivermectin 5 uM): 80.18% and 78.28% and 78.87% | % inhibition ([9]; Ivermectin 0.3 uM alone): 24.74% and 21.54% and 19.89% | % inhibition ([9]; Ivermectin 0.6 uM alone): 40.13% and 29.29% and 31.22% | % inhibition ([9]; Ivermectin 1.2 uM alone): 46.41% and 46.78% and 47.88% | % inhibition ([9]; Ivermectin 2.4 uM alone): 68.57% and 80.79% and 75.01% | IC50 ([9]; read-out: IC50 (μM) qRT-PCR, Vero E6, MOI 0.01, 48 hours, single drug): 1.27 µM | CC50 ([10]; Calu-3, MTT, 48 hours): 3.1 µM | %cell viability ([10]; Calu-3, ivermectin 0.048828 uM): 101.77% and 102.10% | %cell viability ([10]; Calu-3, ivermectin 0.195313 uM): 103.33% | %cell viability ([10]; Calu-3, ivermectin 0.390625 uM): 106.67% and 102.92% | %cell viability ([10]; Calu-3, ivermectin 0.78125 uM): 103.89% | %cell viability ([10]; Calu-3, ivermectin 1.5625 uM): 100.11% and 106.94% | %cell viability ([10]; Calu-3, ivermectin 3.125 uM): 41.94% and 53.47% | %cell viability ([10]; Calu-3, ivermectin 6.25 uM): 6.67% | %cell viability ([10]; Calu-3, ivermectin 12.5 uM): 6.53% and 6.39% | cell viability ([10]; Ivermectin 0.05 uM alone): 100.07 and 99.88 | cell viability ([10]; Ivermectin 0.10 uM alone): 99.91 and 100.11 | cell viability ([10]; Ivermectin 0.20 uM alone): 101.94 and 95.31 | cell viability ([10]; Ivermectin 0.40 uM alone): 94.38 and 100.45
